Results reported in US9862748B2, “Peptide compounds and methods of production and use thereof” (priority 2012, dated 2018).

Tests used:
[1] = test system: mouse cornea (corneal epithelial abrasion); assay: In vivo model of corneal wound healing; settings: treated at 0 and 16 hours; 95-122 10^−5 M; 120-146WH 10^−8 M or 10^−6 M; HB-EGF 250 ng/ml
[2] = test system: Pseudomonas aeruginosa ATCC® 27853™; assay type: cell-based; settings: 3.12-25 μM; 180 minutes
Procedure, shortened: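 P. aeruginosa ATCC 27853 at 1×10^6 CFU/ml incubated 180 min with peptides (25–3.12 μM, pH 5.5 or 7.2; or 150–37.5 μg/ml, pH 5.5) versus tryptone saline; gentamicin 4 μg/ml control. Surviving CFU counted after overnight plating, expressed as log reduction in CFU/ml.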

## LDREANLTSSVTILPLPLQNATVEAGTR (listed as Homo sapiens) [Peptide 95-122]
[1]
  corneal wound healing versus vehicle: promotes corneal wound healing
[2]
  activity against Pseudomonas aeruginosa at either pH (5.5, 7.2): not active
